Patent US9212182B2, “Bicyclic sulfonamide compounds as sodium channel inhibitors” (AMGEN INC., priority 2013, dated 2015)

target: Nav 1.7 (Homo sapiens (Human), UniProt Q15858); assay: in-vitro Nav 1.7 PX (IC50); format: cell-based; settings: not given
Sequence (Q15858 whole entry): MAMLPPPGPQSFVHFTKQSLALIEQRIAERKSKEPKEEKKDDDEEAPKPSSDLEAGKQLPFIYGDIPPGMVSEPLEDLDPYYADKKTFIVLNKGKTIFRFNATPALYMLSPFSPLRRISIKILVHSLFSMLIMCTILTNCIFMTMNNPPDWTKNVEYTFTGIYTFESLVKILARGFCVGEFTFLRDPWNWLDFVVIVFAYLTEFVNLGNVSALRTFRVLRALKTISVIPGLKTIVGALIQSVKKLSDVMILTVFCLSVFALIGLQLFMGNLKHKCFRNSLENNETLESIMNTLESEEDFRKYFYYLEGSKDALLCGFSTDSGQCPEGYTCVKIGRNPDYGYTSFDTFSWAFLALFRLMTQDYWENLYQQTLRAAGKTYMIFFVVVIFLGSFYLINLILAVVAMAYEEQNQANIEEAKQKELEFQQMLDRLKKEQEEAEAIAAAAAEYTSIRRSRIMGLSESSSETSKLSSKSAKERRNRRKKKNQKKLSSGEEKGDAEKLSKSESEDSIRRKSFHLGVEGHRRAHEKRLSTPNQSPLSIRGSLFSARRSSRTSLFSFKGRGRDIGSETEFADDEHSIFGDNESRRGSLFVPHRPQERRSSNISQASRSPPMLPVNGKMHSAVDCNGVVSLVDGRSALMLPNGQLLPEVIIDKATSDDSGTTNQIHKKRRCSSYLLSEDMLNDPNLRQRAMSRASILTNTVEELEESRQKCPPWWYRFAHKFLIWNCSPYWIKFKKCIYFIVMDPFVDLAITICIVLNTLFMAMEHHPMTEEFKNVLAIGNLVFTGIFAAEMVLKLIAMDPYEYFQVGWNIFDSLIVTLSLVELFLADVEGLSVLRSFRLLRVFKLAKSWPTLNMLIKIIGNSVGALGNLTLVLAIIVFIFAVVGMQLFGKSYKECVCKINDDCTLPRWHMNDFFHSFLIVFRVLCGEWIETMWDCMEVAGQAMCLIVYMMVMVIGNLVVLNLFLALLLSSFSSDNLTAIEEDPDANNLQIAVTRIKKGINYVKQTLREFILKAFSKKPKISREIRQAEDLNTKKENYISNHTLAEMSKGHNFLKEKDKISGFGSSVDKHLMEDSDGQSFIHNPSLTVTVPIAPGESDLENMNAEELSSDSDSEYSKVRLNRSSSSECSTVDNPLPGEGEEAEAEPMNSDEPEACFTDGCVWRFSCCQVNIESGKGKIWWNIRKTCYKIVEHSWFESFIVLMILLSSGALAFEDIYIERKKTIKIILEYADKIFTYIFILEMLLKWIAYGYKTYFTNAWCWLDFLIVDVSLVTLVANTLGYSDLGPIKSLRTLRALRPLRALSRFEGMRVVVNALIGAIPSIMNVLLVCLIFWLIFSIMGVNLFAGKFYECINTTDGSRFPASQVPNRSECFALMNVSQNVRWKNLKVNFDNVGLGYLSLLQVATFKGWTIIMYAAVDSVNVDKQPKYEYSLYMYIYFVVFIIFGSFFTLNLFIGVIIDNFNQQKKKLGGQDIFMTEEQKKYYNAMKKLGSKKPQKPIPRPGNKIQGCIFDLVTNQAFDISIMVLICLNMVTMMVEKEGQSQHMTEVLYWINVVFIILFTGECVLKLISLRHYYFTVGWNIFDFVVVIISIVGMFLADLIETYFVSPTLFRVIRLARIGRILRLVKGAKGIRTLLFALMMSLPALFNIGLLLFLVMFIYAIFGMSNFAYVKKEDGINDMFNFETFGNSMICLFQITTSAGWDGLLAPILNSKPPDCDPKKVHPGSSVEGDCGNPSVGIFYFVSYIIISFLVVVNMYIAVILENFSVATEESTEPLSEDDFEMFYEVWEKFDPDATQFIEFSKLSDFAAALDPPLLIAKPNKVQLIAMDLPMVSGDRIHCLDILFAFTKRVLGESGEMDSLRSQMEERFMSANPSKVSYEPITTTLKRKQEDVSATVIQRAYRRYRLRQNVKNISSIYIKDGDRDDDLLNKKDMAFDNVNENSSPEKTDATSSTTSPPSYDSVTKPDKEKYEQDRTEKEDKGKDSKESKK

Row | IC50 [nM] | Compound
1 | 648 | O=c1ccc2cc(S(=O)(=O)Nc3ccon3)ccc2n1-c1ccc(C(F)(F)F)cc1-c1cn[nH]c1 [Example 346, P-1-(2-(1H-pyrazol-4-yl)-4-(trifluoromethyl)phenyl)-N-(isoxazol-3-yl)-2-oxo-1,2-dihydroquinoline-6-sulfonamide]
2 | 793 | COc1nc(OCC(F)(F)C2CCOCC2)c(Cl)cc1-n1c(=O)ccc2cc(S(=O)(=O)Nc3ccon3)ccc21 [Example 1211, 1-(5-chloro-6-(2,2-difluoro-2-(tetrahydro-2H-pyran-4-yl)ethoxy)-2-methoxy-3-pyridinyl)-N-3-isoxazolyl-2-oxo-1,2-dihydro-6-quinolinesulfonamide]
3 | 113 | COc1cc(C#CC2CCCC2)ccc1-n1c(=O)ccc2cc(S(=O)(=O)Nc3cccnn3)ccc21 (atropisomer, axis not shown; (P)) [Example 1239, (P)-1-(4-(cyclopentylethynyl)-2-methoxyphenyl)-2-oxo-N-3-pyridazinyl-1,2-dihydro-6-quinolinesulfonamide]
4 | 846 | COc1nc(Oc2cc(F)ccc2F)c(Cl)cc1-n1c(=O)ccc2cc(S(=O)(=O)Nc3ccon3)ccc21 [Example 1225, 1-(5-chloro-6-(2,5-difluorophenoxy)-2-methoxy-3-pyridinyl)-N-3-isoxazolyl-2-oxo-1,2-dihydro-6-quinolinesulfonamide]
5 | 88 | COc1nc(O[C@H]2CCCC[C@H]2C)c(Cl)cc1-n1c(=O)ccc2cc(S(=O)(=O)Nc3ccon3)ccc21 [Example 1224, 1-(5-chloro-2-methoxy-6-(((1S,2R)-2-methylcyclohexyl)oxy)-3-pyridinyl)-N-3-isoxazolyl-2-oxo-1,2-dihydro-6-quinolinesulfonamide]

Row | Compound | IC50 [nM]
6 | COc1cc(-c2cccc(F)c2)c(Cl)cc1-n1c(=O)ccc2cc(S(=O)(=O)Nc3nncs3)ccc21 (atropisomer, axis not shown; (M)) [Example 354, (M)-1-(2-chloro-3′-fluoro-5-methoxy-[1,1′-biphenyl]-4-yl)-2-oxo-N-(1,3,4-THIADIAZOL-2-yl)-1,2-dihydroquinoline-6-sulfonamide] | 5860
7 | COc1cc(-c2ccc(Cl)c(C)c2)c(F)cc1-n1c(=O)c(OC)cc2cc(S(=O)(=O)Nc3ccon3)ccc21 (atropisomer, axis not shown; (M)) [Example 413, (M)-1-(4′-chloro-2-fluoro-5-methoxy-3′-methyl-[1,1′-biphenyl]-4-yl)-N-(isoxazol-3-yl)-3-methoxy-2-oxo-1,2-dihydroquinoline-6-sulfonamide] | 5890
8 | N#CCOc1cc(-c2cccc(F)c2)c(F)cc1-n1c(=O)ccc2cc(S(=O)(=O)Nc3ccon3)ccc21 [Example 387, 1-(5-(cyanomethoxy)-2,3′-difluoro-[1,1′-biphenyl]-4-yl)-N-(isoxazol-3-yl)-2-oxo-1,2-dihydroquinoline-6-sulfonamide] | 89

same assay, conditions: in-vitro Nav 1.7 PX data

Row | Compound | IC50 [nM]
9 | COc1cc(-c2cccc(C(C)C)c2)ccc1-n1c(=O)ccc2cc(S(=O)(=O)Nc3ccon3)ccc21 [Example 783, N-3-isoxazolyl-1-(3-methoxy-3′-(1-methylethyl)-4-biphenylyl)-2-oxo-1,2-dihydro-6-quinolinesulfonamide] | 9
10 | COc1nc(-c2cccc(C)c2)c(Cl)cc1-n1c(=O)ccc2cc(S(=O)(=O)Nc3ccon3)ccc21 [Example 1089, 1-(5-chloro-2-methoxy-6-(3-methylphenyl)-3-pyridinyl)-N-3-isoxazolyl-2-oxo-1,2-dihydro-6-quinolinesulfonamide] | 3240
11 | COc1cc(-c2ccc(Cl)c(C)c2)ccc1-n1c(=O)ccc2cc(S(=O)(=O)Nc3cnccn3)ccc21 [Example 659, 1-(4′-chloro-3-methoxy-3′-methyl-4-biphenylyl)-2-oxo-N-2-pyrazinyl-1,2-dihydro-6-quinolinesulfonamide] | 35
12 | COc1nc(OCC(F)(F)F)c(Cl)cc1-n1c(=O)ccc2cc(S(=O)(=O)Nc3ccon3)ccc21 [Example 833, 1-(5-chloro-2-methoxy-6-(2,2,2-trifluoroethoxy)-3-pyridinyl)-N-3-isoxazolyl-2-oxo-1,2-dihydro-6-quinolinesulfonamide] | 565
13 | COc1cc(-c2ccc(OC)c(-n3c(=O)ccc4cc(S(=O)(=O)Nc5ccon5)ccc43)c2)ccc1F [Example 889, 1-(4′-fluoro-3′,4-dimethoxy-3-biphenylyl)-N-3-isoxazolyl-2-oxo-1,2-dihydro-6-quinolinesulfonamide] | 184
14 | COc1cc(-c2cc(Cl)cnc2OC)c(F)cc1-n1c(=O)ccc2cc(S(=O)(=O)Nc3ncc(F)cn3)ccc21 [Example 774, 1-(4-(5-chloro-2-methoxy-3-pyridinyl)-5-fluoro-2-methoxyphenyl)-N-(5-fluoro-2-pyrimidinyl)-2-oxo-1,2-dihydro-6-quinolinesulfonamide] | 48
15 | COc1cc(C#CC2CC2)c(F)cc1-n1c(=O)ccc2cc(S(=O)(=O)Nc3ccon3)ccc21 [Example 1130, 1-(4-(cyclopropylethynyl)-5-fluoro-2-methoxyphenyl)-N-3-isoxazolyl-2-oxo-1,2-dihydro-6-quinolinesulfonamide] | 209
16 | 1-(4′-chloro-2-fluoro-3′,5-dimethyl-4-biphenylyl)-2-oxo-N-3-pyridazinyl-1,2-dihydro-6-quinolinesulfonamide [Example 973] | 90
17 | COc1cc(-c2cccc(F)c2)ccc1-n1c(=O)ccc2cc(S(=O)(=O)Nc3ccon3)ccc21 [Example 818, 1-(3′-fluoro-3-methoxy-4-biphenylyl)-N-3-isoxazolyl-2-oxo-1,2-dihydro-6-quinolinesulfonamide] | 38
18 | COc1cc([C@H]2CC[C@@H](OC)CC2)c(F)cc1-n1c(=O)ccc2cc(S(=O)(=O)Nc3ccon3)ccc21 [Example 1086, 1-(5-fluoro-2-methoxy-4-(cis-4-methoxycyclohexyl)phenyl)-N-3-isoxazolyl-2-oxo-1,2-dihydro-6-quinolinesulfonamide, 1-(5-fluoro-2-methoxy-4-(trans-4-methoxycyclohexyl)phenyl)-N-3-isoxazolyl-2-oxo-1,2-dihydro-6-quinolinesulfonamide] | 3910

Further lines, results first:

Row | IC50 [nM] | Compound
19 | 3 | COc1cc(-c2ccc(Cl)c(C)c2)c(F)cc1-n1c(=O)ccc2cc(S(=O)(=O)Nc3nncs3)ccc21 [Example 1074, 1-(4′-chloro-2-fluoro-5-methoxy-3′-methyl-4-biphenylyl)-2-oxo-N-1,3,4-thiadiazol-2-yl-1,2-dihydro-6-quinolinesulfonamide]
20 | 47 | COc1cc(-c2ccc(F)c(F)c2)c(F)cc1-n1c(=O)ccc2cc(S(=O)(=O)Nc3cc(C)ncn3)ccc21 [Example 938, N-(6-methyl-4-pyrimidinyl)-2-oxo-1-(2,3′,4′-trifluoro-5-methoxy-4-biphenylyl)-1,2-dihydro-6-quinolinesulfonamide]
21 | 24 | COc1cc(-c2cccc(C)c2)c(F)cc1-n1c(=O)ccc2cc(S(=O)(=O)Nc3ncco3)ccc21 [Example 1106, 1-(2-fluoro-5-methoxy-3′-methyl-4-biphenylyl)-N-1,3-oxazol-2-yl-2-oxo-1,2-dihydro-6-quinolinesulfonamide]
22 | 71 | COc1cc(F)ccc1-c1cc(OC)c(-n2c(=O)ccc3cc(S(=O)(=O)Nc4ccon4)ccc32)cc1F [Example 741, 1-(2,4′-difluoro-2′,5-dimethoxy-4-biphenylyl)-N-3-isoxazolyl-2-oxo-1,2-dihydro-6-quinolinesulfonamide]
23 | 178 | COc1cc(-c2cnc(F)c(C)c2)c(F)cc1-n1c(=O)ccc2cc(S(=O)(=O)Nc3ccon3)ccc21 [Example 722, 1-(5-fluoro-4-(6-fluoro-5-methyl-3-pyridinyl)-2-methoxyphenyl)-N-3-isoxazolyl-2-oxo-1,2-dihydro-6-quinolinesulfonamide]
24 | 15 | COc1cc(-c2cc(OC)c(-n3c(=O)ccc4cc(S(=O)(=O)Nc5ccon5)ccc43)cc2F)ccc1F [Example 713, 1-(2,4′-difluoro-3′,5-dimethoxy-4-biphenylyl)-N-3-isoxazolyl-2-oxo-1,2-dihydro-6-quinolinesulfonamide]
25 | 21 | COc1cc(-c2cccc(C)c2)c(F)cc1-n1c(=O)ccc2cc(S(=O)(=O)Nc3cccnn3)ccc21 [Example 1108, 1-(2-fluoro-5-methoxy-3′-methyl-4-biphenylyl)-2-oxo-N-3-pyridazinyl-1,2-dihydro-6-quinolinesulfonamide]

same assay, conditions: in-vitro Nav 1.7 PX data (PatchXpress)

Row | IC50 [nM] | Compound
26 | 58 | COc1cc(-c2ccc(-n3c(=O)ccc4cc(S(=O)(=O)Nc5cccnn5)ccc43)c(OC)c2)ccc1Cl [Example 1038, 1-(4′-chloro-3,3′-dimethoxy-4-biphenylyl)-2-oxo-N-3-pyridazinyl-1,2-dihydro-6-quinolinesulfonamide]
27 | 13 | COc1cc(-c2cc(F)c(F)cc2C)ccc1-n1c(=O)ccc2cc(S(=O)(=O)Nc3ccon3)ccc21 [Example 1064, 1-(4′,5′-difluoro-3-methoxy-2′-methyl-4-biphenylyl)-N-3-isoxazolyl-2-oxo-1,2-dihydro-6-quinolinesulfonamide]
28 | 9 | COc1cc(-c2cc(C)c(F)cc2F)ccc1-n1c(=O)ccc2cc(S(=O)(=O)Nc3ccon3)ccc21 [Example 1065, 1-(2′,4′-difluoro-3-methoxy-5′-methyl-4-biphenylyl)-N-3-isoxazolyl-2-oxo-1,2-dihydro-6-quinolinesulfonamide]

same assay, conditions: in-vitro PatchXpress (PX)

Row | IC50 [nM] | Compound
29 | 1000 | COc1cc(N2CC(F)(F)C2)c(F)cc1-n1c(=O)ccc2cc(S(=O)(=O)Nc3ccon3)ccc21 [Example 406, 1-(4-(3,3-difluoro-1-azetidinyl)-5-fluoro-2-methoxyphenyl)-N-3-isoxazolyl-2-oxo-1,2-dihydro-6-quinolinesulfonamide]
30 | 16 | COc1cc(-c2cccc(C(F)(F)F)c2)ccc1-n1c(=O)ccc2cc(S(=O)(=O)Nc3cccnn3)ccc21 (atropisomer, axis not shown; (P)) [Example 369, (P)-1-(3-methoxy-3′-(trifluoromethyl)-4-biphenylyl)-2-oxo-N-3-pyridazinyl-1,2-dihydro-6-quinolinesulfonamide]
31 | 1260 | COc1cc(-c2ccc(F)c(Cl)c2)c(F)cc1-n1c(=O)ccc2cc(S(=O)(=O)Nc3ccon3)ccc21 (atropisomer, axis not shown; (M)) [Example 366, (M)-1-(3′-chloro-2,4′-difluoro-5-methoxy-4-biphenylyl)-N-3-isoxazolyl-2-oxo-1,2-dihydro-6-quinolinesulfonamide]
